Here are results for 15 molecules from patent US5646173A, “Tricyclic pyrrole derivatives useful as 5-HT selective agents” (Hoffmann-La Roche Inc., priority 1993, dated 1997).

Structures can show the parent of a compound that is named as a salt. Where two headings read alike, the source gives them in different places.

By ED50 is commonly meant the dose that gives a 50% effect, or the effect in half of the subjects. A word on the IC50: it is the midpoint of a concentration-inhibition curve.

One test concerns the target T1, human-5HT1A receptors (Homo sapiens, UniProt P08908).
T1 construct: expressed in transfected cells; host or cells: mouse 3T3 cells
T1 sequence (P08908 1-422): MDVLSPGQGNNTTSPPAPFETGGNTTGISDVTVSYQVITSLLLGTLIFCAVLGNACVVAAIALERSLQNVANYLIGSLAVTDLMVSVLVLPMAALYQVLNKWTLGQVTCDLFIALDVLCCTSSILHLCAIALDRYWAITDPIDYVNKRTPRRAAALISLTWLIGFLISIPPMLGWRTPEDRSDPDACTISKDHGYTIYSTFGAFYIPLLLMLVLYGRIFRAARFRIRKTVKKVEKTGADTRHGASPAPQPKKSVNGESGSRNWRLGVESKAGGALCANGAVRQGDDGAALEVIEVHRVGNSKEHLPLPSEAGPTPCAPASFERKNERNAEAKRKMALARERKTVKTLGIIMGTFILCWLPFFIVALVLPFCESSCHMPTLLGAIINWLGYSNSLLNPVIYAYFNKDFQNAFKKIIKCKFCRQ
The test is described as follows: [3H]-5-HT displacement on recombinant human 5HT1A receptors expressed in 3T3 cells of mice (Method II a). The test is classed as binding. From the text: [L] is the concentration of ligand and the KD value is the dissociation constant of the ligand.

Test [1] has as its target T2, 5HT2A receptor (Homo sapiens, UniProt P28223).
T2 construct: expressed in transfected cells; host or cells: transfected mammalian cells (inferred from the cited method)
The test is described as follows: [3H]-DOB binding assay (Method II c). From the text: c) For the binding to the 5HT2A receptor in accordance with the [3H]-DOB binding assay according to the method of T. Branchek et al., Molecular Pharmacology 38, 604-609 (1990).
(§1) The pki values (pki =-log^10 Ki) of the test substances are given. […] [L] is the concentration of ligand and the KD value is the dissociation constant of the ligand.

The target in test [2] is T3, 5HT2C receptor (Rattus norvegicus, UniProt P08909).
T3 sequence (P08909 33-460): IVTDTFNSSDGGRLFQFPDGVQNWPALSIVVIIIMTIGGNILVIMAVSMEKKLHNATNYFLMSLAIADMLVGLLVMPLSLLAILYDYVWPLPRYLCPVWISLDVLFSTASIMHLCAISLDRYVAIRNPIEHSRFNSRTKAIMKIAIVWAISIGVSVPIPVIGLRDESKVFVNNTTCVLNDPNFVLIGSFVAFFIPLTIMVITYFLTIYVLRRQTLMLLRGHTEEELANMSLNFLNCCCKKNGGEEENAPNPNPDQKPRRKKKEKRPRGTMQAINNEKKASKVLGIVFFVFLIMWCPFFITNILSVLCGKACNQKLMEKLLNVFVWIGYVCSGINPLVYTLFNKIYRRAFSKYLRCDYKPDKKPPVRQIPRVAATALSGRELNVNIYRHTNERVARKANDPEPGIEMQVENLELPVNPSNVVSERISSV
Briefly: [3H]-5-HT binding assay (Method II b). Also noted: expressed in transfected cells; host or cells: clonal 5-HT1C cell line.
Description: b) For the binding to the 5HT2C receptor in accordance with the [3H]-5-HT binding assay according to the method of S. J. Peroutka et al., Brain Research 584, 191-196 (1992).
as §1

Test [3] has as its target T3, 5HT2C receptor. Briefly: Penile erection (rats). Also noted: from tissue; host or cells: living rat. As to conditions: s.c., number of penile erections within 45 minutes following administration. The test is classed as in vivo. On the procedure:
It has been shown that penile erection is dependent on the stimulation of the 5HT2C receptor (see Berendsen & Broekkamp, Eur. J. Pharmacol, 135, 179-184 (1987)).
The number of penile erections was determined within 45 minutes following administration of the test substance to the animal.

The target in the next test is 5HT1A receptor. The test is described as follows: 3H-8-OH-DPAT binding assay (Method I a). As to conditions: read-out: IC50, test method a. How it is done:
The binding of the compounds of formula I in accordance with the invention to serotonin receptors was determined in vitro by standard methods. The preparations were investigated in accordance with the assays given hereinafter: […]

Test [4] concerns the target T4, 5HT2C receptor (Sus scrofa, UniProt K7GSR7).
T4 construct: from tissue
T4 sequence (K7GSR7 1-457): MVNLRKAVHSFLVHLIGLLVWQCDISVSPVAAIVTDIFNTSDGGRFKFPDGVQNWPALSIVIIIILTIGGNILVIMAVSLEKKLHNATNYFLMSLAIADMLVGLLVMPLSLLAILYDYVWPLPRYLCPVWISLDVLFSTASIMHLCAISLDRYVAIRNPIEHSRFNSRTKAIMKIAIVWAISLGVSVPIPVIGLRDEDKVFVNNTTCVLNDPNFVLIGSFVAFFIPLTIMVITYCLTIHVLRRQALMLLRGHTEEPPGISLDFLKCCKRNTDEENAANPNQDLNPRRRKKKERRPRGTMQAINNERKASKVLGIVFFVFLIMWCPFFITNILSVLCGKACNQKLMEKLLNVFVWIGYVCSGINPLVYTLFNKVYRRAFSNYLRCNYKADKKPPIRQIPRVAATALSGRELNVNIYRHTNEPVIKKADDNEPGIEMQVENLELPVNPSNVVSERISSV
Briefly: 3H-mesulergine binding assay (Method I b). How it is done:
(§2) The binding of the compounds of formula I in accordance with the invention to serotonin receptors was determined in vitro by standard methods. The preparations were investigated in accordance with the assays given hereinafter:
b) For the binding to the 5HT2C receptor in accordance with the ^3 H-mesulergine binding assay according to the method of A. Pazos et al., Europ. J. Pharmacol. 106, 539-546 or. D. Hoyer, Receptor Research 8, 59-81 (1988).

The target in test [5] is T5, 5HT2A receptor (Rattus norvegicus, UniProt P14842).
T5 construct: from tissue; host or cells: rat frontal cortex membranes (inferred from the cited method)
T5 sequence (P14842 whole entry): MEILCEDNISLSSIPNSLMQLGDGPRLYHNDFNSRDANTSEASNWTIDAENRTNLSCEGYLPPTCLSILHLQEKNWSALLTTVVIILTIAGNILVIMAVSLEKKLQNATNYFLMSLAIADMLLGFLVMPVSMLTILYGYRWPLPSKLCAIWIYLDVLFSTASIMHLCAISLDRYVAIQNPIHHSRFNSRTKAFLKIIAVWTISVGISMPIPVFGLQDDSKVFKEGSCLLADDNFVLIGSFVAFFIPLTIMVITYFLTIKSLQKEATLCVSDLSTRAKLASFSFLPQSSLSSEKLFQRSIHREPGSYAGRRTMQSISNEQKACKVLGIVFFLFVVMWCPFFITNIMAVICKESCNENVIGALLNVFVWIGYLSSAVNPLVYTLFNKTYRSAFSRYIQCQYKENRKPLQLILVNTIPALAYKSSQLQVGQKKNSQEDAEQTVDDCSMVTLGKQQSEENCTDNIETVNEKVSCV
The test is described as follows: biochemical. Type of test: binding. How it is done:
as §2
c) For the binding to the 5HT2A receptor in accordance with the ^3 H-ketanserine binding assay according to the method of J. E. Leysen, Molecular Pharmacology 21, 301-304 (1981).

Setting [6] is: 5HT2C, [3H]-5-HT, Method II, read-out: pki, test method b (converted).
[7] abbreviates: human 5HT1A, [3H]-5-HT (1 nM), 3T3 cell membranes, Method II, read-out: pki, test method a (converted).
[8] abbreviates: rat, sc, 0.75 h, read-out: ED50.

T2 sequence (P28223 whole entry): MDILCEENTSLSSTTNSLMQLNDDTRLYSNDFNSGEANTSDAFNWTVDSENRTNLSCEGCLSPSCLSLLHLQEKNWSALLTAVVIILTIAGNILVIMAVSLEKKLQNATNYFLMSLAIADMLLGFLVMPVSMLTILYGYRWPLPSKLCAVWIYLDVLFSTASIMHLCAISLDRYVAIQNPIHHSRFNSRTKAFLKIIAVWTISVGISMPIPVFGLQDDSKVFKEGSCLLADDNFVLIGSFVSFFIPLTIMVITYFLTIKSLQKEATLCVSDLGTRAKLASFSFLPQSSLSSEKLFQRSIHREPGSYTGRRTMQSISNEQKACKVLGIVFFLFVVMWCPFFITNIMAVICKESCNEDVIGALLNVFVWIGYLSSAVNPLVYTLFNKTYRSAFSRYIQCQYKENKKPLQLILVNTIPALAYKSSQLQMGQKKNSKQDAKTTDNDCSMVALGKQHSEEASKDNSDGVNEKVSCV

With `CC(N)Cn1ccc2c1-c1cccc(Cl)c1C2` (racemic) [Example 37, (RS)-2-(5-chloro-1,4-dihydro-indeno[1,2-b]pyrrol-1-yl)-1-methyl-ethylaminefumarate (1:0.5)], the Ki on human-5HT1A receptors is 4.79 µM; at 5HT2A receptor [1] it was 309 nM; at 5HT2C receptor [2] (setting [6]), 35.5 nM.
As for `Cc1cccc2c1Cc1ccn(CC(C)N)c1-2` (racemic) [Example 50, (RS)-2-(5-methyl-1,4-dihydro-indeno[1,2-b]pyrrol-1-yl)-1-methyl-ethylaminefumarate (1:0.5)], the values for the Ki at human-5HT1A receptors (setting [7]), on 5HT2A receptor [1] and at 5HT2C receptor [2] were 2.4 µM, 447 nM and 107 nM, respectively.
For the molecule `Cc1ccc2c(c1)-c1c(ccn1C[C@H](C)N)C2(C)C.O=C(O)/C=C/C(=O)O` [Example 1, (S)-2-(4,4,7-trimethyl-1,4-dihydro-indeno[1,2-b]pyrrol-1-yl)-1-methyl-ethylamine fumarate (1:1)], the Ki at human-5HT1A receptors is 2.19 µM; on 5HT2A receptor [1], 53.7 nM; on 5HT2C receptor [2] it was 3.24 nM. Further, the ED50 on 5HT2C receptor [3] (setting [8]) was 0.9 mg/kg.
For `COc1ccc2c(c1)-c1c(ccn1C[C@H](C)N)C2(C)C.O=C(O)/C=C/C(=O)O` [Example 2, (S)-2-(7-methoxy-4,4-dimethyl-1,4-dihydro-indeno[1,2-b]pyrrol-1-yl)-1-methyl-ethylamine fumarate (1:1)], the results for the Ki at human-5HT1A receptors, on 5HT2A receptor [1] and on 5HT2C receptor [2] were 4.07 µM, 9.33 nM and 0.363 nM, respectively. For the same molecule, the ED50 on 5HT2C receptor [3] (setting [8]) came to 0.5 mg/kg.
In the case of `COc1ccc2c(c1)-c1c(ccn1C[C@H](C)N)C2` [Example 3, (S)-2-(7-methoxy-1,4-dihydro-indeno[1,2-b]pyrrol-1-yl)-1-methyl-ethylaminefumarate (1:0.5)], the IC50 worked out at 2830 nM on 5HT1A receptor, 11.4 nM on 5HT2C receptor [4] and 2160 nM against 5HT2A receptor [5]. Further, the median effective dose (ED50) on 5HT2C receptor [3] (setting [8]) was determined as 1.2 mg/kg. Moreover, the Ki at 5HT2A receptor [1] is 75.9 nM; at 5HT2C receptor [2], 6.92 nM.
Turning to `C[C@H](N)Cn1ccc2c1-c1cc(Cl)ccc1C2` [Example 4, (S)-2-(7-chloro-1,4-dihydro-indeno[1,2-b]pyrrol-1-yl)-1-methyl-ethylamine fumarate (1:0.5)], the IC50 at 5HT1A receptor stood at 3230 nM; at 5HT2C receptor [4], 49.3 nM; on 5HT2A receptor [5], 2170 nM. Also, the ED50 on 5HT2C receptor [3] (setting [8]) worked out at 2.7 mg/kg.
Turning to `COc1ccc2c(c1)-c1c(ccn1C[C@H](C)N)CC2.O=C(O)/C=C/C(=O)O` [Example 5, (S)-2-(4,5-dihydro-8-methoxy-1H-benz[g]indol-1-yl)-1-methyl-ethylamine fumarate (1:1)], the IC50 at 5HT1A receptor was 2560 nM; at 5HT2C receptor [4] it was 20.2 nM; against 5HT2A receptor [5] it was 591 nM. On 5HT2C receptor [3], the ED50 is given as 3.20 mg/kg, s.c.
With `CCc1ccc2c(c1)-c1c(ccn1C[C@H](C)N)C2(C)C` [Example 8, (S)-2-(7-ethyl-4,4-dimethyl-1,4-dihydro-indeno[1,2-b]pyrrol-1-yl)-1-methyl-ethylamine fumarate (1:1)], the figures for the Ki at human-5HT1A receptors, on 5HT2A receptor [1] and at 5HT2C receptor [2] (setting [6]) were 4.57 µM, 66.1 nM and 2.34 nM, respectively.
In the case of `C[C@H](N)Cn1ccc2c1-c1cc(F)ccc1C2(C)C` [Example 9, (S)-2-(7-fluoro-4,4-dimethyl-1,4-dihydro-indeno[1,2-b]pyrrol-1-yl)-1-methyl-ethylamine fumarate (1:1)], the Ki at human-5HT1A receptors was 2.75 µM; on 5HT2A receptor [1], 34.7 nM; at 5HT2C receptor [2], 5.13 nM.
As to `CCC1(CC)c2ccc(OC)cc2-c2c1ccn2C[C@H](C)N` [Example 12, (S)-2-(7-methoxy-4,4-diethyl-1,4-dihydro-indeno[1,2-b]pyrrol-1-yl)-1-methyl-ethylamine fumarate (1:0.5)], the Ki at human-5HT1A receptors was 10 µM; at 5HT2A receptor [1] it was 115 nM; on 5HT2C receptor [2] (setting [6]) it was 10 nM.
Consider `C[C@H](N)Cn1ccc2c1-c1cc(-c3ccccc3)ccc1C2` [Example 14, (S)-2-(7-phenyl-1,4-dihydro-indeno[1,2-b]pyrrol-1-yl)-1-methyl-ethylamine fumarate (1:0.5)], for which the Ki at human-5HT1A receptors (setting [7]) is 10 µM; at 5HT2A receptor [1], 24 nM; at 5HT2C receptor [2] it was 16.6 nM.
The like results for `CCc1ccc2c(c1)-c1c(ccn1C[C@H](C)N)C2` [Example 17, (S)-2-(7-ethyl-1,4-dihydro-indeno[1,2-b]pyrrol-1-yl)-1-methyl-ethylamine fumarate (1:0.5)] were, in that order, 10 µM, 562 nM and 18.2 nM.
`C[C@H](N)Cn1ccc2c1-c1cc(F)c(F)cc1C2` [Example 25, (S)-2-(6,7-difluoro-1,4-dihydro-indeno[1,2-b]pyrrol-1-yl)-1-methyl-ethylamine fumarate (1:1)]: the figures for the Ki on human-5HT1A receptors, on 5HT2A receptor [1] and at 5HT2C receptor [2] (setting [6]) were 10 µM, 550 nM and 41.7 nM, respectively.
Consider `COc1cc2c(cc1Cl)C(C)(C)c1ccn(C[C@H](C)N)c1-2` [Example 26, (S)-2-(6-chloro-7-methoxy-4,4-dimethyl-1,4-dihydro-indeno[1,2-b]pyrrol-1-yl)-1-methyl-ethylamine fumarate (1:1)], for which the Ki at human-5HT1A receptors is 5.62 µM; on 5HT2A receptor [1], 67.6 nM; at 5HT2C receptor [2] (setting [6]), 26.3 nM.
For the molecule `Cc1ccc2c(c1)-c1c(ccn1C[C@H](C)N)C21CCCC1` [Example 44, (S)-1-methyl-2-(7'-methyl-1',4'-dihydro-spiro[cyclopentane]-1,4'-indeno[1,2-b]pyrrol-1-yl)-ethylamine fumarate (1:1)], the results for the Ki at human-5HT1A receptors (setting [7]), on 5HT2A receptor [1] and on 5HT2C receptor [2] were 1.86 µM, 269 nM and 79.4 nM, respectively.
